Tests used:
[1] = LC-MS/MS metabolite scouting of MRS2365 in plasma and whole blood; format: in vitro ADME; conditions: EDTA-treated mouse and human whole blood
Description: Plasma Stability Determination: MRS2365, enalapril and procaine were solubilized in phosphate-buffered saline, pH 7.4. […] Stability incubations were initiated with the addition of MRS2365 (1 μM final concentration). Initial assessments of stability in EDTA-generated plasma utilized incubation timepoints of 0, 10, 30, 60, 120 and 240 minutes (FIGS. 3 and 4). Subsequent studies comparing EDTA- and heparin-generated plasma utilized incubation timepoints of 0, 1, 2.5, 5, 7.5, 10 and 30 minutes (FIG. 7). Additional plasma stability incubations comparing EDTA- and heparin-generated plasma were performed using timepoints of 0, 5, 10, 20, 30, 45, 60 and 90 seconds (FIG. 8). […]
Plasma and blood samples were also qualitatively analyzed for MRS2365 metabolites utilizing a LC-MS/MS-based “metabolite scouting” protocol. […] Blood and plasma samples were analyzed by both positive- and negative-ion LC/MS-MS for parent compound and metabolites as it was anticipated that the phosphorylated compounds would preferentially generate negative ions while the riboside MRS4322 would preferentially generate positive ions. In positive-ion mode, extracted ion chromatograms monitored masses in the range of 323.7-324.7 and 403.7-404.7 to scout for MRS4322 and MRS2347, respectively. Any ion peaks in these ranges were further analyzed to generate product ion spectra for these ion chromatogram peaks. […]

[2] = In vitro stability of MRS2365 in mouse whole blood; format: in vitro ADME; conditions: male, CD-1, EDTA-treated mouse whole blood
Description: Whole blood was obtained from male CD-1 mice and human volunteers at Seventh Wave Laboratories (Maryland Heights, MO). Plasma and blood samples were prepared using either EDTA (1 mM) or lithium heparin as anticoagulants.
Blood Stability Determination: MRS2365, enalapril and procaine were solubilized in phosphate-buffered saline, pH 7.4. […] Stability incubations were initiated with the addition of MRS2365 (1 μM final concentration) (FIGS. 5 and 6). Blood sample aliquots were obtained at 0, 1, 2.5, 7.5, 10 and 30 minutes and placed in microtainer tubes. For metabolite scouting analyses, MRS2365 was incubated in heparinized human whole blood at a concentration of 100 μM for 10 or 30 minutes (FIG. 10). In all studies, plasma was immediately prepared by centrifugation at 4° C., placed in microtainer tubes, frozen on dry ice and stored at −80° C. until analysis.
The following table outlines the LC and MS/MS conditions employed (Table 11).
The calibration range for MRS2365 plasma and blood concentration standard curves was 5-5000 ng/mL. Quality control samples were utilized at concentrations of 32, 160, 800 and 4000 ng/mL.

Structure (SMILES): CSc1nc(N)c2ncn([C@H]3[C@H](O)[C@H](O)[C@]4(COP(=O)(O)OP(=O)(O)O)C[C@H]34)c2n1 [MRS2365]
- metabolites detected [1]: No metabolites were detected
- half-life at 1 μM [2]: 47 min
